Assays:
Test in all cases: viability relative to DMSO control (fraction); higher = less drug effect (more viable cells)
Settings in all cases: 48 h
[1] = system: primary AML patient cells (S012)
Summary of the method: (§1)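 Viability is given as CellTiter-Glo luminescence relative to the median of 16 inner DMSO wells. Fresh or cryopreserved primary mononuclear tumour cells from blood, bone marrow (both Ficoll-isolated) or processed lymph node were plated at 4 × 10^4 cells per well in 384-well plates against five pre-plated compound concentrations, one well each. Incubation lasted 48 h at 37 °C and 5% CO2 in RPMI-1640 with penicillin/streptomycin, L-glutamine and human serum.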

[2] = system: primary AML patient cells (S002)
Summary of the method: as §1

[3] = system: primary AML patient cells (S079)
Summary of the method: as §1

[4] = system: primary MCL patient cells (S053)
Summary of the method: as §1

[5] = system: primary AML patient cells (S072)
Summary of the method: as §1

[6] = system: primary T-PLL patient cells (S008)
Summary of the method: as §1

[7] = system: primary AML patient cells (S017)
Summary of the method: as §1

[8] = system: primary BL patient cells (S005)
Summary of the method: as §1

[9] = system: primary AML patient cells (S081)
Summary of the method: as §1

[10] = system: primary MCL patient cells (S068)
Summary of the method: as §1

[11] = system: primary FL patient cells (S022)
Summary of the method: as §1

[12] = system: primary AML patient cells (S056)
Summary of the method: as §1

[13] = system: primary AML patient cells (S009)
Summary of the method: as §1

[14] = system: primary ALL patient cells (S048)
Summary of the method: as §1

[15] = system: primary AML patient cells (S055)
Summary of the method: as §1

[16] = system: primary AML patient cells (S006)
Summary of the method: as §1

[17] = system: primary AML patient cells (S025)
Summary of the method: as §1

[18] = system: primary CLL patient cells (S043)
Summary of the method: as §1

[19] = system: primary AML patient cells (S021)
Summary of the method: as §1

[20] = system: primary MCL patient cells (S063)
Summary of the method: as §1

Compound: Nc1nc(=S)c2[nH]cnc2[nH]1 [Thioguanin]
- viability ([1]; 0.024 µM): 0.99
- viability ([1]; 0.12 µM): 1
- viability ([1]; 0.6 µM): 0.946
- viability ([1]; 3 µM): 0.751
- viability ([1]; 15 µM): 0.513
- viability ([2]; 0.024 µM): 1.1
- viability ([2]; 0.12 µM): 1.09
- viability ([2]; 0.6 µM): 0.949
- viability ([2]; 3 µM): 0.66
- viability ([2]; 15 µM): 0.446
- viability ([3]; 0.024 µM): 1.02
- viability ([3]; 0.12 µM): 0.821
- viability ([3]; 0.6 µM): 0.575
- viability ([3]; 3 µM): 0.453
- viability ([3]; 15 µM): 0.254
- viability ([4]; 0.024 µM): 0.893
- viability ([4]; 0.12 µM): 0.699
- viability ([4]; 0.6 µM): 0.45
- viability ([4]; 3 µM): 0.25
- viability ([4]; 15 µM): 0.173
- viability ([5]; 0.024 µM): 1.02
- viability ([5]; 0.12 µM): 1.01
- viability ([5]; 0.6 µM): 0.768
- viability ([5]; 3 µM): 0.538
- viability ([5]; 15 µM): 0.387
- viability ([6]; 0.024 µM): 1.02
- viability ([6]; 0.12 µM): 0.986
- viability ([6]; 0.6 µM): 0.957
- viability ([6]; 3 µM): 0.9
- viability ([6]; 15 µM): 0.629
- viability ([7]; 0.024 µM): 0.97
- viability ([7]; 0.12 µM): 1.05
- viability ([7]; 0.6 µM): 0.785
- viability ([7]; 3 µM): 0.561
- viability ([7]; 15 µM): 0.38
- viability ([8]; 0.024 µM): 0.938
- viability ([8]; 0.12 µM): 0.665
- viability ([8]; 0.6 µM): 0.823
- viability ([8]; 3 µM): 0.673
- viability ([8]; 15 µM): 0.261
- viability ([9]; 0.024 µM): 1.09
- viability ([9]; 0.12 µM): 0.899
- viability ([9]; 0.6 µM): 0.621
- viability ([9]; 3 µM): 0.465
- viability ([9]; 15 µM): 0.319
- viability ([10]; 0.024 µM): 0.982
- viability ([10]; 0.12 µM): 0.892
- viability ([10]; 0.6 µM): 0.83
- viability ([10]; 3 µM): 0.6
- viability ([10]; 15 µM): 0.299
- viability ([11]; 0.024 µM): 0.991
- viability ([11]; 0.12 µM): 0.955
- viability ([11]; 0.6 µM): 0.835
- viability ([11]; 3 µM): 0.622
- viability ([11]; 15 µM): 0.483
- viability ([12]; 0.024 µM): 0.912
- viability ([12]; 0.12 µM): 0.897
- viability ([12]; 0.6 µM): 0.889
- viability ([12]; 3 µM): 0.339
- viability ([12]; 15 µM): 0.127
- viability ([13]; 0.024 µM): 1.14
- viability ([13]; 0.12 µM): 1.09
- viability ([13]; 0.6 µM): 1.07
- viability ([13]; 3 µM): 0.696
- viability ([13]; 15 µM): 0.489
- viability ([14]; 0.024 µM): 0.949
- viability ([14]; 0.12 µM): 0.906
- viability ([14]; 0.6 µM): 0.664
- viability ([14]; 3 µM): 0.37
- viability ([14]; 15 µM): 0.17
- viability ([15]; 0.024 µM): 0.964
- viability ([15]; 0.12 µM): 0.867
- viability ([15]; 0.6 µM): 0.49
- viability ([15]; 3 µM): 0.19
- viability ([15]; 15 µM): 0.114
- viability ([16]; 0.024 µM): 1.07
- viability ([16]; 0.12 µM): 0.996
- viability ([16]; 0.6 µM): 0.57
- viability ([16]; 3 µM): 0.202
- viability ([16]; 15 µM): 0.0984
- viability ([17]; 0.024 µM): 0.945
- viability ([17]; 0.12 µM): 0.751
- viability ([17]; 0.6 µM): 0.615
- viability ([17]; 3 µM): 0.279
- viability ([17]; 15 µM): 0.152
- viability ([18]; 0.024 µM): 0.884
- viability ([18]; 0.12 µM): 0.798
- viability ([18]; 0.6 µM): 0.685
- viability ([18]; 3 µM): 0.546
- viability ([18]; 15 µM): 0.338
- viability ([19]; 0.024 µM): 1.11
- viability ([19]; 0.12 µM): 0.984
- viability ([19]; 0.6 µM): 0.918
- viability ([19]; 3 µM): 0.672
- viability ([19]; 15 µM): 0.435
- viability ([20]; 0.024 µM): 1.03
- viability ([20]; 0.12 µM): 0.867
- viability ([20]; 0.6 µM): 0.495
- viability ([20]; 3 µM): 0.192
- viability ([20]; 15 µM): 0.064

Compound: Nc1nc(Cl)nc2c1ncn2[C@@H]1O[C@H](CO)[C@@H](O)[C@@H]1F [Clofarabine]
- viability ([1]; 0.024 µM): 0.956
- viability ([1]; 0.12 µM): 0.826
- viability ([1]; 0.6 µM): 0.459
- viability ([1]; 3 µM): 0.276
- viability ([1]; 15 µM): 0.136
- viability ([2]; 0.024 µM): 0.696
- viability ([2]; 0.12 µM): 0.427
- viability ([2]; 0.6 µM): 0.375
- viability ([2]; 3 µM): 0.387
- viability ([2]; 15 µM): 0.329
- viability ([3]; 0.024 µM): 0.804
- viability ([3]; 0.12 µM): 0.512
- viability ([3]; 0.6 µM): 0.285
- viability ([3]; 3 µM): 0.139
- viability ([3]; 15 µM): 0.0818
- viability ([4]; 0.024 µM): 0.492
- viability ([4]; 0.12 µM): 0.356
- viability ([4]; 0.6 µM): 0.266
- viability ([4]; 3 µM): 0.255
- viability ([4]; 15 µM): 0.211
- viability ([5]; 0.024 µM): 0.863
- viability ([5]; 0.12 µM): 0.762
- viability ([5]; 0.6 µM): 0.587
- viability ([5]; 3 µM): 0.521
- viability ([5]; 15 µM): 0.407
- viability ([6]; 0.024 µM): 0.989
- viability ([6]; 0.12 µM): 0.864
- viability ([6]; 0.6 µM): 0.64
- viability ([6]; 3 µM): 0.562
- viability ([6]; 15 µM): 0.551
- viability ([7]; 0.024 µM): 1.06
- viability ([7]; 0.12 µM): 0.91
- viability ([7]; 0.6 µM): 0.538
- viability ([7]; 3 µM): 0.3
- viability ([7]; 15 µM): 0.149
- viability ([8]; 0.024 µM): 0.929
- viability ([8]; 0.12 µM): 0.925
- viability ([8]; 0.6 µM): 0.761
- viability ([8]; 3 µM): 0.882
- viability ([8]; 15 µM): 0.735
- viability ([9]; 0.024 µM): 1.08
- viability ([9]; 0.12 µM): 1.07
- viability ([9]; 0.6 µM): 0.861
- viability ([9]; 3 µM): 0.684
- viability ([9]; 15 µM): 0.415
- viability ([10]; 0.024 µM): 0.522
- viability ([10]; 0.12 µM): 0.301
- viability ([10]; 0.6 µM): 0.203
- viability ([10]; 3 µM): 0.156
- viability ([10]; 15 µM): 0.128
- viability ([11]; 0.024 µM): 0.817
- viability ([11]; 0.12 µM): 0.643
- viability ([11]; 0.6 µM): 0.457
- viability ([11]; 3 µM): 0.306
- viability ([11]; 15 µM): 0.256
- viability ([12]; 0.024 µM): 1
- viability ([12]; 0.12 µM): 0.413
- viability ([12]; 0.6 µM): 0.288
- viability ([12]; 3 µM): 0.277
- viability ([12]; 15 µM): 0.303
- viability ([13]; 0.024 µM): 0.585
- viability ([13]; 0.12 µM): 0.541
- viability ([13]; 0.6 µM): 0.391
- viability ([13]; 3 µM): 0.381
- viability ([13]; 15 µM): 0.258
- viability ([14]; 0.024 µM): 0.345
- viability ([14]; 0.12 µM): 0.0686
- viability ([14]; 0.6 µM): 0.0335
- viability ([14]; 3 µM): 0.0271
- viability ([14]; 15 µM): 0.0269
- viability ([15]; 0.024 µM): 0.951
- viability ([15]; 0.12 µM): 0.792
- viability ([15]; 0.6 µM): 0.677
- viability ([15]; 3 µM): 0.507
- viability ([15]; 15 µM): 0.446
- viability ([16]; 0.024 µM): 0.759
- viability ([16]; 0.12 µM): 0.381
- viability ([16]; 0.6 µM): 0.351
- viability ([16]; 3 µM): 0.461
- viability ([16]; 15 µM): 0.489
- viability ([17]; 0.024 µM): 0.528
- viability ([17]; 0.12 µM): 0.46
- viability ([17]; 0.6 µM): 0.478
- viability ([17]; 3 µM): 0.492
- viability ([17]; 15 µM): 0.463
- viability ([18]; 0.024 µM): 1
- viability ([18]; 0.12 µM): 0.888
- viability ([18]; 0.6 µM): 0.457
- viability ([18]; 3 µM): 0.284
- viability ([18]; 15 µM): 0.157
- viability ([19]; 0.024 µM): 0.755
- viability ([19]; 0.12 µM): 0.425
- viability ([19]; 0.6 µM): 0.286
- viability ([19]; 3 µM): 0.21
- viability ([19]; 15 µM): 0.201
- viability ([20]; 0.024 µM): 0.912
- viability ([20]; 0.12 µM): 0.736
- viability ([20]; 0.6 µM): 0.245
- viability ([20]; 3 µM): 0.0814
- viability ([20]; 15 µM): 0.0383
